# Species: Rattus norvegicus
# Assay: DrugMatrix - Regimen: Daily Repeat
# Assay type: toxicity, organism-based, Sprague-Dawley
# Parameters: regimen Daily Repeat, gender Male, age 6-8 weeks
# Conditions: in vivo, po, route oral GAVAGE, vehicle 100 % WATER; for ABSOLUTE BASOPHIL / ABSOLUTE EOSINOPHIL / ABSOLUTE LYMPHOCYTE / ABSOLUTE MONOCYTE / ABSOLUTE SEGMENTED NEUTROPHIL / BASOPHIL / EOSINOPHIL / ERYTHROCYTE COUNT / HEMATOCRIT / HEMOGLOBIN / LEUKOCYTE COUNT / LYMPHOCYTE / MEAN CORPUSCULAR HEMOGLOBIN / MEAN CORPUSCULAR HEMOGLOBIN CONCENTRATION / MEAN CORPUSCULAR VOLUME / MONOCYTE / NEUTROPHIL / NUCLEATED RED BLOOD CELLS / PLATELET COUNT: tissue Blood; for ALANINE AMINOTRANSFERASE / ALBUMIN / ALKALINE PHOSPHATASE / ASPARTATE AMINOTRANSFERASE / BLOOD UREA NITROGEN / CARBON DIOXIDE / CHLORIDE / CHOLESTEROL / CREATINE PHOSPHOKINASE / CREATININE / GLUCOSE / LACTATE DEHYDROGENASE / LIPASE / PHOSPHORUS / POTASSIUM / SODIUM / TOTAL BILIRUBIN / TOTAL PROTEIN / URIC ACID: tissue Plasma
# [1] = 19.5 mg/kg, 120 h, dose level Low, time 5 day
# [2] = 75 mg/kg, 72 h, dose level High, time 3 day
# [3] = 75 mg/kg, 120 h, dose level High, time 5 day
smiles,measurement,setting,value
CN1CCC[C@H]1c1cccnc1 [NICOTINE],ABSOLUTE BASOPHIL,[1],0 CELLS/uL
same,ABSOLUTE EOSINOPHIL,[1],37.67 CELLS/uL
same,ABSOLUTE LYMPHOCYTE,[1],10299.33 CELLS/uL
same,ABSOLUTE MONOCYTE,[1],0 CELLS/uL
same,ABSOLUTE SEGMENTED NEUTROPHIL,[1],1096.33 CELLS/uL
same,BASOPHIL,[1],0%
same,EOSINOPHIL,[1],0.33%
same,ERYTHROCYTE COUNT,[1],5.67 x10E6/uL
same,HEMATOCRIT,[1],35.63%
same,HEMOGLOBIN,[1],14.17 G/DL
same,LEUKOCYTE COUNT,[1],11.43 x10E3/uL
same,LYMPHOCYTE,[1],90.33%
same,MEAN CORPUSCULAR HEMOGLOBIN,[1],25 pg
same,MEAN CORPUSCULAR HEMOGLOBIN CONCENTRATION,[1],39.77 G/DL
same,MEAN CORPUSCULAR VOLUME,[1],62.83 fL
same,MONOCYTE,[1],0%
same,NEUTROPHIL,[1],9.33%
same,NUCLEATED RED BLOOD CELLS,[1],0.33 /100WBC
same,PLATELET COUNT,[1],1167.67 x10E3/uL
same,ALANINE AMINOTRANSFERASE,[1],54.67 u/L
same,ALBUMIN,[1],4.17 G/DL
same,ALKALINE PHOSPHATASE,[1],397.33 u/L
same,ASPARTATE AMINOTRANSFERASE,[1],83.67 u/L
same,BLOOD UREA NITROGEN,[1],12 mg/dL
same,CARBON DIOXIDE,[1],34.33 mmol/L
same,CHLORIDE,[1],101 MEQ/L
same,CHOLESTEROL,[1],62.33 mg/dL
same,CREATINE PHOSPHOKINASE,[1],196.67 u/L
same,CREATININE,[1],0.21 mg/dL
same,GLUCOSE,[1],146.67 mg/dL
same,LACTATE DEHYDROGENASE,[1],207.67 u/L
same,LIPASE,[1],11.67 u/L
same,PHOSPHORUS,[1],11.63 mg/dL
same,POTASSIUM,[1],6.48 MEQ/L
same,SODIUM,[1],143.9 MEQ/L
same,TOTAL BILIRUBIN,[1],0.23 mg/dL
same,TOTAL PROTEIN,[1],6.03 G/DL
same,URIC ACID,[1],1.2 mg/dL
same,ABSOLUTE BASOPHIL,[2],0 CELLS/uL
same,ABSOLUTE EOSINOPHIL,[2],0 CELLS/uL
same,ABSOLUTE LYMPHOCYTE,[2],13562.33 CELLS/uL
same,ABSOLUTE MONOCYTE,[2],210.33 CELLS/uL
same,ABSOLUTE SEGMENTED NEUTROPHIL,[2],827.33 CELLS/uL
same,BASOPHIL,[2],0%
same,EOSINOPHIL,[2],0%
same,ERYTHROCYTE COUNT,[2],5.82 x10E6/uL
same,HEMATOCRIT,[2],37.17%
same,HEMOGLOBIN,[2],14.57 G/DL
same,LEUKOCYTE COUNT,[2],14.6 x10E3/uL
same,LYMPHOCYTE,[2],93%
same,MEAN CORPUSCULAR HEMOGLOBIN,[2],25.03 pg
same,MEAN CORPUSCULAR HEMOGLOBIN CONCENTRATION,[2],39.2 G/DL
same,MEAN CORPUSCULAR VOLUME,[2],63.87 fL
same,MONOCYTE,[2],1.33%
same,NEUTROPHIL,[2],5.67%
same,NUCLEATED RED BLOOD CELLS,[2],0.33 /100WBC
same,PLATELET COUNT,[2],1370 x10E3/uL
same,ALANINE AMINOTRANSFERASE,[2],58.67 u/L
same,ALBUMIN,[2],4.07 G/DL
same,ALKALINE PHOSPHATASE,[2],398 u/L
same,ASPARTATE AMINOTRANSFERASE,[2],92 u/L
same,BLOOD UREA NITROGEN,[2],11 mg/dL
same,CARBON DIOXIDE,[2],25.67 mmol/L
same,CHLORIDE,[2],101.33 MEQ/L
same,CHOLESTEROL,[2],64 mg/dL
same,CREATINE PHOSPHOKINASE,[2],288.33 u/L
same,CREATININE,[2],0.13 mg/dL
same,GLUCOSE,[2],150.33 mg/dL
same,LACTATE DEHYDROGENASE,[2],290.67 u/L
same,LIPASE,[2],10.33 u/L
same,PHOSPHORUS,[2],11.73 mg/dL
same,POTASSIUM,[2],6.07 MEQ/L
same,SODIUM,[2],143.23 MEQ/L
same,TOTAL BILIRUBIN,[2],0.17 mg/dL
same,TOTAL PROTEIN,[2],5.73 G/DL
same,URIC ACID,[2],1.6 mg/dL
same,ABSOLUTE BASOPHIL,[3],0 CELLS/uL
same,ABSOLUTE EOSINOPHIL,[3],0 CELLS/uL
same,ABSOLUTE LYMPHOCYTE,[3],9380.67 CELLS/uL
same,ABSOLUTE MONOCYTE,[3],97.67 CELLS/uL
same,ABSOLUTE SEGMENTED NEUTROPHIL,[3],455 CELLS/uL
same,BASOPHIL,[3],0%
same,EOSINOPHIL,[3],0%
same,ERYTHROCYTE COUNT,[3],6.33 x10E6/uL
same,HEMATOCRIT,[3],38.6%
same,HEMOGLOBIN,[3],15.23 G/DL
same,LEUKOCYTE COUNT,[3],9.93 x10E3/uL
same,LYMPHOCYTE,[3],94.33%
same,MEAN CORPUSCULAR HEMOGLOBIN,[3],24.1 pg
same,MEAN CORPUSCULAR HEMOGLOBIN CONCENTRATION,[3],39.5 G/DL
same,MEAN CORPUSCULAR VOLUME,[3],61 fL
same,MONOCYTE,[3],1%
same,NEUTROPHIL,[3],4.67%
same,NUCLEATED RED BLOOD CELLS,[3],0.33 /100WBC
same,PLATELET COUNT,[3],1256.67 x10E3/uL
same,ALANINE AMINOTRANSFERASE,[3],64.67 u/L
same,ALBUMIN,[3],4.53 G/DL
same,ALKALINE PHOSPHATASE,[3],383 u/L
same,ASPARTATE AMINOTRANSFERASE,[3],91 u/L
same,BLOOD UREA NITROGEN,[3],12.67 mg/dL
same,CARBON DIOXIDE,[3],33 mmol/L
same,CHLORIDE,[3],101.67 MEQ/L
same,CHOLESTEROL,[3],71.67 mg/dL
same,CREATINE PHOSPHOKINASE,[3],315 u/L
same,CREATININE,[3],0.22 mg/dL
same,GLUCOSE,[3],140.33 mg/dL
same,LACTATE DEHYDROGENASE,[3],131.33 u/L
same,LIPASE,[3],9.67 u/L
same,PHOSPHORUS,[3],9.5 mg/dL
same,POTASSIUM,[3],5.03 MEQ/L
same,SODIUM,[3],147.7 MEQ/L
same,TOTAL BILIRUBIN,[3],0.17 mg/dL
same,TOTAL PROTEIN,[3],6.6 G/DL
same,URIC ACID,[3],0.77 mg/dL
